Data published in patent US20240148821A1, “PHARMACEUTICAL USE OF CYCLIC PEPTIDE COMPOUND” (CHUGAI SEIYAKU KABUSHIKI KAISHA, priority 2021, published 2024).
Read-outs that look alike come from different tables or passages of the source. Bridge positions count the residues as written; N and C are the ends. Square brackets hold non-standard residues; d marks the D form. Peptide text beside a SMILES is read from it. * marks the point of attachment. hPhe(3,5-F2-4-CF3) = N[C@@H](CCc1cc(F)c(C(F)(F)F)c(F)c1)C(=O)O; hPhe(3-Cl-4-CF3) = N[C@@H](CCc1ccc(C(F)(F)F)c(Cl)c1)C(=O)O; NEtPhe(4-Me) = CCN[C@@H](Cc1ccc(C)cc1)C(=O)O; NMeGly(cPent) = CN[C@H](C(=O)O)C1CCCC1; NMeCha = CN[C@@H](CC1CCCCC1)C(=O)O; NMeChg = CN[C@H](C(=O)O)C1CCCCC1; NMeD = CN[C@@H](CC(=O)O)C(=O)O; NMeL = CN[C@@H](CC(C)C)C(=O)O; NMeA = CN[C@@H](C)C(=O)O; Piperidide = C1CCN(*)CC1; Ac5c = NC1(C(=O)O)CCCC1; Aze = O=C(O)[C@@H]1CCN1; Sar = CNCC(=O)O

Legend:
[1] = system: large bowel carcinoma cell line LS 180; assay: In vivo antitumor activity, mouse xenograft model, LS 180; conditions: LS 180 (Colon) xenograft, 7 days
Text: (§1) Tumor growth inhibition rate (TGI %)=(1−TV/CV)×100

[2] = system: large bowel carcinoma cell line LoVo; conditions: LoVo (Colon) xenograft, 10 mg/kg once daily, 10 days
Procedure: (§2) Each type of cell line was subcutaneously grafted into nude mice, which were randomized after tumor size reached 200 to 300 mm^3, and compound administration (once daily) was initiated (Day 0). The solvents used to dissolve the compounds were DMSO and Cremophor EL. […] From the tumor volume data on the last measurement day, the tumor growth inhibition rate (TGI %: Tumor Growth Inhibition %) was calculated using the following expressions.
(§3) tumor volume (mm^3):½×long diameter (mm)×short diameter (mm)×short diameter (mm)
(§4) amount of change in tumor volume (mm^3)=tumor volume after Day 0−tumor volume at Day 0 • TV: average value of amount of change in tumor volume in administered group • CV: average value of amount of change in tumor volume in non-administered group

[3] = system: pancreatic cancer cell line MIA PaCa-2; conditions: MIA PaCa-2 (Pancreas) xenograft, 14 days
Procedure: as §2, §3, §4

[4] = system: gastric cancer cell line MKN-1 with an amplified copy number of the KRAS gene; conditions: MKN1 (Stomach) xenograft, 10 days
Procedure: as §2, §3, §4

[5] = system: non-small cell lung cancer cell line NC1-1441 with a KRAS mutation; assay: In vivo antitumor activity, mouse xenograft model, NCI-H441; conditions: NCI-H441 (NSCLC) xenograft, 14 days
Text: as §1

[6] = system: various cancer cell lines (Ras mutation or amplification); assay: Measurement of cell growth inhibitory activity against various cancer cell lines (CellTiter-Glo); format: cell-based, human
Procedure: Various cancer cell lines used were purchased from commercial suppliers. […] The cell suspension and culture medium supplemented with serum were dispensed to a plate containing the test compounds at 40 μL (384 well plate) or 200 μL (96 well plate) per well and incubated in a carbon dioxide gas incubator. […] Six days or seven days after the start of cultivation, 20 μL of CellTiter-Glo (Promega) was added to each well and fluorescence was measured.

[7] = system: pancreatic cancer cell line KP4; conditions: KP4 (Pancreas) xenograft, 10 days
Procedure: as §2, §3, §4

[8] = system: Human pancreatic cancer cell line AsPC-1 (G12D mutation Kras); assay: AsPC-1 cell growth inhibition (AsPC-1 CGI); format: cell-based; conditions: read-out: AsPC-1 cell growth inhibition, 50% growth inhibitory concentration (IC50 value); 96 hours, CellTiter-Glo, values classified in ranges
Procedure: Test compounds were serially dilated with dimethyl sulfoxide, and 200 nL was then dispensed to a U-bottom 96-well plate using Labcyte Echo. […] The cell suspension was dispensed to a. plate containing a test compound at 100 μL per well and incubated at 37° C. in a 5% carbon dioxide gas incubator. 96 hours later, 80 μL of CellTiter-Glo (Promega) was added to each well and fluorescence was measured.

human KRAS G12D (human) = human KRAS G12D (human) (UniProt P01116); assay: cell-based or functional assay
human KRAS G12C (human) = human KRAS G12C (human) (UniProt P01116); assay: cell-based or functional assay
human KRAS G12S (human) = human KRAS G12S (human) (UniProt P01116); assay: cell-based or functional assay
[9] = biological target: human KRAS, gene copy number amplified (human) (UniProt P01116); assay: cell-based or functional assay
human NRAS G13D (human) = human NRAS G13D (human) (UniProt P01111); assay: cell-based or functional assay
human KRAS G12V (human) = human KRAS G12V (human) (UniProt P01116); assay: cell-based or functional assay

CC[C@H](C)[C@@H]1NC(=O)[C@H](CC(C)C)N(C)C(=O)C[C@@H](C(=O)N(C)C)N(C)C(=O)[C@H](C2CCCC2)N(C)C(=O)C2(CCCC2)NC(=O)[C@@H]2CCCN2C(=O)[C@H](CCc2cc(F)c(C(F)(F)F)c(F)c2)NC(=O)CN(C)C(=O)[C@H](Cc2ccc(C)cc2)N(CC)C(=O)[C@@H]2CCN2C(=O)[C@H](C)N(C)C1=O [Compound 1217, (5S,8S,11S,15S,18S,23aS,29S,35S,37aS)-8-((S)-sec-butyl)-18-cyclopentyl-29-(3,5-difluoro-4-(trifluoromethyl)phenethyl)-36-ethyl-1l-isobutyl-N,N,5,6,12,16,19,33-octamethyl-35-(4-methylbenzyl)-4,7,10,13,17,20,23,28,31,34,37-undecaoxotetratriacontahydro-2H,4H-spiro[azeto[2,1-u]pyrrolo[2,1-i][1,4,7,10,13,16,19,22,25,28,31]undecaazacyclotetratriacontine-21,1′-cyclopentane]-15-carboxamide] ([NMeL]I[NMeA][Aze][NEtPhe(4-Me)][Sar][hPhe(3,5-F2-4-CF3)]P[Ac5c][NMeGly(cPent)][NMeD]-NMe2; lactam N-11)
TGI (%) ([1]; 3 mg/kg once daily): 11% | TGI (%) ([1]; 5 mg/kg once daily): 38% | TGI (%) ([1]; 10 mg/kg once daily): 65% | TGI (%) [2]: 85% | TGI (%) ([3]; 3 mg/kg once daily): 16% | TGI (%) ([3]; 5 mg/kg once daily): 65% | TGI (%) ([3]; 10 mg/kg once daily): 149% | TGI (%) ([4]; 5 mg/kg once daily): 55% | TGI (%) ([4]; 10 mg/kg once daily): 205% | TGI (%) ([5]; 3 mg/kg once daily): 59% | TGI (%) ([5]; 5 mg/kg once daily): 92% | TGI (%) ([5]; 10 mg/kg once daily): 110% | IC50 ([6]; A549, NSCLC, KRAS G12S): 0.3 nM | IC50 ([6]; AGS, Stomach, KRAS G12D): 0.32 nM | IC50 ([6]; AML-193, AML, NRAS G13V): 11.8 nM | IC50 ([6]; AsPC-1, Pancreas, KRAS G12D): 0.87 nM | IC50 ([6]; C-643, Thyroid, HRAS G13R): 3.24 nM | IC50 ([6]; CFPAC-1, Pancreas, KRAS G12V): 17.3 nM | IC50 ([6]; COR-L23, NSCLC, KRAS Amp (G12V)): 2.85 nM | IC50 ([6]; Calu-6, NSCLC, KRAS Q61K): 43.7 nM | IC50 ([6]; DLD-1, Colon, KRAS G13D): 5.08 nM | IC50 ([6]; DMS 53, SCLC, KRAS Amp): 12.2 nM | IC50 ([6]; FAMPAC, Pancreas, KRAS G12V): 2.09 nM | IC50 ([6]; HCC-44, NSCLC, KRAS G12C): 0.55 nM | IC50 ([6]; HCC-1171, NSCLC, KRAS G12C): 4.86 nM | IC50 ([6]; HCT-116, Colon, KRAS G13D): 8.58 nM | IC50 ([6]; HEC-50B, Endometrium, KRAS G12D): 43.8 nM | IC50 ([6]; HEC-151, Endometrium, NRAS G12D): 2.42 nM | IC50 ([6]; HLG-1, NSCLC, KRAS G12V): 3.29 nM | IC50 ([6]; HPAC, Pancreas, KRAS G12D): 2.19 nM | IC50 ([6]; HuG1-N, Stomach, KRAS Amp): 3.74 nM | IC50 ([6]; IPC-298, Skin, NRAS Q61L): 23.5 nM | IC50 ([6]; KE-39, Stomach, KRAS Amp): 0.8 nM | IC50 ([6]; KLE, Endometrium, KRAS Amp): 170 nM | IC50 ([6]; KMM-1, Myeloma, NRAS G13D): 8.59 nM | IC50 ([6]; KP4, Pancreas, KRAS G12D): 3.3 nM | IC50 ([6]; KURAMOCHI, Ovary, KRAS Amp): 1.18 nM | IC50 ([6]; LS 174T, Colon, KRAS G12D): 4.31 nM | IC50 ([6]; LS 180, Colon, KRAS G12D): 0.83 nM | IC50 ([6]; LS513, Colon, KRAS G12D): 3.69 nM | IC50 ([6]; LoVo, Colon, KRAS G13D): 5.5 nM | IC50 ([6]; MIA PaCa-2, Pancreas, KRAS G12C): 1.45 nM | IC50 ([6]; MKN-1, Stomach, KRAS Amp): 1.77 nM | IC50 ([6]; MOLT-4, ALL, NRAS G12C): 175 nM | IC50 ([6]; NCI-H23, NSCLC, KRAS G12C): 3.92 nM | IC50 ([6]; NCI-H358, NSCLC, KRAS G12C): 1.55 nM | IC50 ([6]; NCI-H441, NSCLC, KRAS G12V): 1.12 nM | IC50 ([6]; NCI-H460, NSCLC, KRAS Q61H): 4.2 nM | IC50 ([6]; NCI-H929, Myeloma, NRAS G13D): 9.79 nM | IC50 ([6]; NCI-H1373, NSCLC, KRAS G12C): 2.33 nM | IC50 ([6]; NCI-H1385, NSCLC, KRAS G12C): 14.3 nM | IC50 ([6]; NCI-H1792, NSCLC, KRAS G12C): 0.86 nM | IC50 ([6]; NCI-H1944, NSCLC, KRAS G13D): 2.53 nM | IC50 ([6]; NCI-H2009, NSCLC, KRAS G12A): 2.35 nM | IC50 ([6]; NCI-H2030, NSCLC, KRAS G12C): 4.05 nM | IC50 ([6]; NCI-H2122, NSCLC, KRAS G12C): 0.8 nM | IC50 ([6]; NOMO-1, AML, KRAS G13D): 6.5 nM | IC50 ([6]; PA-1, Ovary, NRAS G12D): 2.38 nM | IC50 ([6]; PANC-1, Pancreas, KRAS G12D): 44.3 nM | IC50 ([6]; RERF-LC-Ad2, NSCLC, KRAS G12V): 5.2 nM | IC50 ([6]; SK-CO-1, Colon, KRAS G12V): 0.49 nM | IC50 ([6]; SK-LU-1, NSCLC, KRAS G12D): 26 nM | IC50 ([6]; SK-MEL-30, Skin, NRAS Q61K): 91.6 nM | IC50 ([6]; SNU-1, Stomach, KRAS G12D): 0.46 nM | IC50 ([6]; SW403, Colon, KRAS G12V): 4.1 nM | IC50 ([6]; SW480, Colon, KRAS G12V): 4.31 nM | IC50 ([6]; T.T, Esophageal, KRAS Amp): 5.68 nM | IC50 ([6]; TYK-nu, Ovary, NRAS G12D, Q61K): 1.14 nM | IC50 ([6]; UM-UC-3, Bladder, KRAS G12C): 2.11 nM | TGI (%) ([7]; 5 mg/kg once daily): 65% | TGI (%) ([7]; 10 mg/kg once daily): 104% | IC50 [8]: ≤ 20 nM

B1: Compound 558 (peptide)
peptide: [NMeL]I[Sar][Sar][NMeCha][Sar][hPhe(3-Cl-4-CF3)]P[Ac5c][NMeChg]D-Piperidide
modifications: lactam N-11; not fully specified (residue 11)
IC50, cell growth inhibition (CellTiter-Glo), LS 180 (Colon) (human KRAS G12D (human)): 22.6 nM | IC50, cell growth inhibition (CellTiter-Glo), SNU-1 (Stomach) (human KRAS G12D (human)): 29.8 nM | IC50, cell growth inhibition (CellTiter-Glo), MIA PaCa-2 (Pancreas) (human KRAS G12C (human)): 18.7 nM | IC50, cell growth inhibition (CellTiter-Glo), A549 (NSCLC) (human KRAS G12S (human)): 7.98 nM | IC50, cell growth inhibition (CellTiter-Glo), A4/Fuk (Non-Hodgkin lymphoma), KRAS Amp [9]: 5.83 nM | IC50, cell growth inhibition (CellTiter-Glo), KURAMOCHI (Ovary), KRAS Amp [9]: 23.4 nM | IC50, cell growth inhibition (CellTiter-Glo), NCI-H929 (Myeloma) (human NRAS G13D (human)): 55.7 nM | IC50, cell growth inhibition (CellTiter-Glo), NCI-H441 (NSCLC) (human KRAS G12V (human)): 31.6 nM | IC50, cell growth inhibition (CellTiter-Glo), SW480 (Colon) (human KRAS G12V (human)): 17.5 nM
